Experimental data as given in article PMC11487561 (ACS Chemical Neuroscience, 2024).
Read-outs that look alike come from different tables or passages of the source.

Columns and labels:
human M4 (hM4) = biological target: T1, human M4 (hM4) (Homo sapiens, UniProt P08173); experiment: Calcium mobilization assay, hM4/Gqi5-CHO cells, EC20 acetylcholine (PAM); format: cell-based; conditions: for Emax: read-out: hM4 %ACh Max; for fold increase in hM4 potency (EC50) vs comparator analogue: 14h vs 14c, 22g vs 14j, 22j vs 14k, 22k vs 14g, 22f vs 14e; for fold decrease in hM4 activity with R1 larger than methyl: relative to the R1 = methyl analogue; for fold loss in hM4 potency vs comparator: 14e vs 14g, 14c vs VU6007215
T1 construct: expressed in transfected cells
T1 sequence (P08173 1-479): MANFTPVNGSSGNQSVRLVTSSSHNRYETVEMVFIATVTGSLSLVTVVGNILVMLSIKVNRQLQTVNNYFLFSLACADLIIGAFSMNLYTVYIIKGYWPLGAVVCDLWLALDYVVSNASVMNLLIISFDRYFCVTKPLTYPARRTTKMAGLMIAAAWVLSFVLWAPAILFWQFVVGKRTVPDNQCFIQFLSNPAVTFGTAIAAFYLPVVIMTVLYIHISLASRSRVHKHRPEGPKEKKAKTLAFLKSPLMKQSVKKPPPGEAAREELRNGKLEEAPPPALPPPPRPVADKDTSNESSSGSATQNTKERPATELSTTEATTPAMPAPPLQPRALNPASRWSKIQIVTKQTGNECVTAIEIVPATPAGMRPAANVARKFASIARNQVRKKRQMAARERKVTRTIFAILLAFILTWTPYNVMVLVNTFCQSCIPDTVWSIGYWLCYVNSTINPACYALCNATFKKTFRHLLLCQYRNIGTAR

[1] = Binding in brain homogenate from rat (equilibrium dialysis); format: in vitro ADME; conditions: for fraction unbound at 6 h, 1 µM: rat, brain homogenate, in %, read-out: fu,brain (rat brain homogenate); for rat fbrain: fraction unbound, equilibrium dialysis, rat brain homogenates
Experimental: Binding in brain homogenate from rat.
Determination of fraction unbound (f u) in brain homogenate from rat was conducted using the same methodology and procedure than described for plasma protein binding assay with the following modifications: 1) a final compound concentration of 1 μM was used, 2) naïve rat brains were homogenized in DPBS (1:3 composition of brain: DPBS, w/w) using a Mini-Bead Beater™ machine in order to obtain […]
The diluted fraction unbound (f u2) in brain was calculated as (analyte to IS MS peak area ratio from Trans-buffer side) / (analyte to IS MS peak area ratio from Cis-brain homogenate side). Undiluted fraction unbound for the brain was calculated using the following equation: […]
Mean values for each species were calculated from 3 replicates. […]

[2] = Intrinsic clearance in rat liver microsomes; format: in vitro ADME; conditions: pH 7.4; rat liver microsomes
Experimental: (§1) Intrinsic Clearance in Rat and Human Liver Microsomes
(§2) The in vitro intrinsic clearance (CL int) was investigated in commercially obtained hepatic microsomes from rat and human donors using the substrate depletion (i.e., loss-of-parent vs. time, or t 1/2 method) approach with analyte detection via liquid chromatography-tandem mass spectrometry (LC-MS/MS). For each species, mean %parent remaining values at each time point were calculated from replicates raw data (analyte:IS peak area ratios) and used to determine in vitro t 1/2 and CLint.
(§3) Experiments were carried out using a robot-assisted (TECAN model Evo 200). Compound was incubated (1 µM final concentration) in buffer (100 mM potassium phosphate pH 7.4 with 3 mM MgCl2) containing hepatic microsomes (0.5 mg/mL final concentration) from multiple species, discretely, at 37 °C under constant orbital shaking. After 5 minutes (pre-incubation), reactions were initiated by addition of nicotinamide adenine dinucleotide phosphate (NADPH, 1 mM final concentration). At selected time intervals (0, 3, 7, 15, 25, and 45 minutes) post-addition of NADPH, aliquots (50 µL) were taken and placed into a 96-shallow-well plate containing ice cold acetonitrile (150 µL) with carbamazepine (IS, 50 nM). The plates were then centrifuged (3000 rcf at 4 °C) for 10 minutes. The supernatants were transferred to a new 96-shallow-well daughter plate and diluted (1:1 v/v) with water (Milli-Q filtered). The plates were then sealed in preparation for LC-MS/MS analysis (see below).
(§4) Raw LC-MS/MS peak area data generated from the assay samples were used to construct natural log-transformed %parent remaining vs. time plots (using t = 0 minute post-NADPH addition sample data as starting point set to 100%). In vitro compound half-life (t 1/2) values were obtained using the following […]
(§5) k is the slope from linear regression analysis of the natural log-transformed data (using means from Where all replicates at each time point). Resulting t 1/2 values were then used to calculate hepatic CLint values according to the following equation and with the use of species-specific scale-up factors for liver weight (grams) per total body weight (kg): […]
(§6) CLint = in vitro t1/2 x 0.5 mg microsomes x 1 gram liver x kg body wt aScale-up factors used are 45 (rat) and 20 (human).2
(§7) Predicted hepatic clearance (CLhep) was calculated using the following equation: […]
(§8) Qh represents hepatic blood flow (mL/min/kg): 21 for human, 70 for rat, and 90 for mouse.
(§9) Prepared samples were injected (10 µL each) onto an AB Sciex Triple Quad 4500 mass spectrometer system with an Agilent 1260 Infinity II pump and autosampler. Mass spectrometer conditions are described in Table S1. Quantitation of compounds was performed via AB Sciex Multiquant software using the raw analyte:IS peak area ratios. The typical detection range was 0.5 ng/mL to ≥ 5,000 ng/mL utilizing a quadratic equation regression with 1/x2 weighting. […]
(§10) Table S1. LC-MS/MS Conditions*
(§11) Mobile phase A 0.5% Formic Acid in Water
(§12) Mobile phase B 0.5% Formic Acid in Acetonitrile
(§13) Gradient Time % Mobile Phase B

[3] = Intrinsic clearance in human liver microsomes; format: in vitro ADME; conditions: pH 7.4; human liver microsomes
Experimental: as §1, §2, §3, §4, §5, §6, §7, §8, §9, §10, §11, §12, §13

[4] = Binding in plasma from rat (equilibrium dialysis); format: in vitro ADME; conditions: fraction unbound, equilibrium dialysis, read-out: rat fu,plasma
Experimental: (§14) Binding in plasma from rat and human.
(§15) Determination of compounds’ fraction unbound (f u) in plasma from rat and human was conducted in vitro via equilibrium dialysis using HTDialysis membrane plates. Dialysis membranes (four paired strips per HTD assay) were hydrated as described by the manufacturer and inserted into the HTD plate, which was assembled and prepared for sample addition by the dispensing of blank buffer (DPBS, 100 µL/well) into the ‘top half’ of each membrane-split well. Each compound was diluted into plasma from each species (5 µM final concentration), which was aliquoted in triplicate to the ‘bottom half’ of the prepared HTD plate wells. The HTD plate was sealed and incubated for 6 hours at 37 °C. Following incubation, each well (both top and bottom halves) were transferred (20 µL) to the corresponding wells of a 96-shallow-well (V-bottom) plate. The daughter plates were then matrix-matched (buffer side wells received equal volume of plasma, and plasma side wells received equal volume of buffer), and extraction solution (120 µL; acetonitrile containing 50 nM carbamazepine as IS) was added to all wells of both daughter plates to precipitate protein and extract test article. The plates were then sealed and centrifuged (3500 rcf) for 10 minutes at ambient temperature. Supernatant (60 µL) from each well of the daughter plates was then transferred to the corresponding wells of new daughter plates (96-shallow-well, V bottom) containing water (Milli-Q, 60 µL/well), and the plates were sealed in preparation for LC-MS/MS analysis (see below). fu was calculated as (analyte to IS MS peak area ratio from Trans-buffer side) / (analyte to IS MS peak area ratio from Cis-plasma side). Mean values for each species were calculated from 3 replicates.

[5] = Binding in plasma from human (equilibrium dialysis); format: in vitro ADME; conditions: human, plasma, fraction unbound; equilibrium dialysis; read-out: human fu,plasma
Experimental: as §14, §15

[6] = Rat plasma-to-brain level (PBL) cassette, brain distribution; format: in vivo; conditions: male, Sprague-Dawley, rat, brain / plasma, iv, 0.2 mg/kg, SD rat, 0.2 mg/kg IV; for Kp at 0.25 h: total brain to total plasma ratio; for Kp uu at 0.25 h: unbound brain to unbound plasma ratio
[7] = calcium mobilization, hM4/Gqi5-CHO cells, EC20 acetylcholine
[8] = calcium mobilization, hM4/Gqi5-CHO cells, EC20 acetylcholine, read-out: hM4 EC50
[9] = calcium mobilization, hM4/Gqi5-CHO cells, EC20 acetylcholine, read-out: hM4 pEC50 (converted)

| SMILES | hM4 pEC50 (human M4 (hM4); [7]) | Emax (human M4 (hM4); [7]) | EC50 (human M4 (hM4); [8]) | also measured |
| --- | --- | --- | --- | --- |
| Cc1nc(C)c2c(n1)sc1c(N3CCC3)ncnc12 [14d] | 5.84 | 60% | 1.4 µM |  |
| Cc1nc(C)c2c(n1)sc1c(NC3CCCC3)ncnc12 [14f] | 6.25 | 56% | 0.56 µM |  |
| Cc1nc(C)c2c(n1)sc1c(N3CCOCC3)ncnc12 [14b] |  | 39% | 5.6 µM | EC50 (human M4 (hM4); [9]): 5.5 µM |
| Cc1nc(C)c2c(n1)sc1c(N3CCCC3)ncnc12 [14g] | 6.54 | 52% | 0.29 µM |  |
| Cc1nc(C)c2c(n1)sc1c(N3CCCCC3)ncnc12 [14a] |  |  | > 30 µM | EC50 (human M4 (hM4); [9]): > 31.6 µM |
| Cc1nc(C)c2c(n1)sc1c(N3CC4(COC4)C3)ncnc12 [14c] | 5.80 | 76% | 1.6 µM | fold loss in hM4 potency vs comparator (human M4 (hM4)): 11 fold |
| Cc1nc(C)c2c(n1)sc1c(NCc3ccc(C(C)(C)O)cc3)ncc(C#N)c12 [compound 28] |  | 62% | 0.96 µM |  |
| COc1ccc(CNc2ncnc3c2sc2nc(C)nc(C)c23)cc1F [14k] | 5.94 | 65% | 1.2 µM | EC50 (human M4 (hM4); in μM, read-out: hM4 EC50): > 1 µM |
| Cc1nc(C)c2c(n1)sc1c(N3CCC(F)(F)C3)ncnc12 [14e] | 6.20 | 77% | 0.64 µM | fold loss in hM4 potency vs comparator (human M4 (hM4)): 2.2 fold |
| Cc1nc(C)c2c(n1)sc1c(NCc3ccc(C(C)(C)O)cc3)ncnc12 [14j] | 5.90 | 70% | 1.3 µM | EC50 (human M4 (hM4); in μM, read-out: hM4 EC50): > 1 µM |
| Cc1nc(C)c2c(n1)sc1c(NCc3ccc(C(C)(C)O)cc3)ncc(C3CC3)c12 [compound 27] |  |  |  | EC50 (human M4 (hM4); [9]): > 31.6 µM |

Now from value to compound, other results behind:

| hM4 pEC50 (human M4 (hM4); [7]) | Emax (human M4 (hM4); [7]) | EC50 (human M4 (hM4); [8]) | SMILES | also measured |
| --- | --- | --- | --- | --- |
|  | 86% | 0.28 µM | Cc1nc(C)c2c(n1)sc1c(NCc3ccc(C(C)(C)O)c(F)c3)nccc12 [22i] | fraction unbound at 6 h, 1 µM [1]: < 0.01 |
|  | 94% | 0.17 µM | COc1ccc(CNc2nccc3c2sc2nc(C)nc(C)c23)cc1F [22j] | fold increase in hM4 potency (EC50) vs comparator analogue (human M4 (hM4)): 7 fold; EC50 (human M4 (hM4); [9]): 0.166 µM; CLint scaled at 1 µM [2]: 386 mL/min/kg; CLint scaled at 1 µM [3]: 50 mL/min/kg; fraction unbound at 6 h, 5 µM [4]: 0.014; fraction unbound at 6 h, 5 µM [5]: 0.009; rat fbrain [1]: 0.009; fraction unbound at 6 h, 1 µM [1]: < 0.01; Kp at 0.25 h [6]: 1.69; Kp uu at 0.25 h [6]: 1.01 |
|  | 97% | < 0.19 µM | Cc1nc(C)c2c(n1)sc1c(N3CCC(F)(F)C3)nccc12 [22f] | fold increase in hM4 potency (EC50) vs comparator analogue (human M4 (hM4)): 19 fold; EC50 (human M4 (hM4); [9]): 0.0331 µM; CLint scaled at 1 µM [2]: 1520 mL/min/kg; CLint scaled at 1 µM [3]: 148 mL/min/kg; fraction unbound at 6 h, 5 µM [4]: 0.043; fraction unbound at 6 h, 5 µM [5]: 0.01; rat fbrain [1]: 0.015; fraction unbound at 6 h, 1 µM [1]: 0.012 to 0.033; Kp at 0.25 h [6]: 8.33; Kp uu at 0.25 h [6]: 2.91 |
|  | 81% | 0.77 µM | CCc1nc(C)c2c(n1)sc1c(NCc3ccc(C(C)(C)O)cc3)nccc12 [22p] | fold decrease in hM4 activity with R1 larger than methyl (human M4 (hM4)): 4.0 fold |
| 6.00 | 65% | 1 µM | Cc1nc(C2CC2)nc2sc3c(N4CCCC4)nccc3c12 [22q] | fold decrease in hM4 activity with R1 larger than methyl (human M4 (hM4)): > 13 fold |
|  | 52% | > 10 µM | Cc1nc(C)c2c(n1)sc1c(N3CCN(C)CC3)nccc12 [22b] |  |
| 6.52 | 95% |  | Cc1nc(C)c2c(n1)sc1c(NC3CCC3)nccc12 [22c] |  |
| 5.86 | 97% | 1.4 µM | Cc1nc(C2CC2)nc2sc3c(NCc4ccc(C(C)(C)O)cc4)nccc3c12 [22o] | fold decrease in hM4 activity with R1 larger than methyl (human M4 (hM4)): 9.3 fold |
|  | 61% | 0.69 µM | Cc1nc(C)c2c(n1)sc1c(N3CCCC3)ncc(Cl)c12 [26b] |  |
|  | 86% | 0.24 µM | Cc1nc(C)c2c(n1)sc1c(CC(C)(C)C)nccc12 [23b] |  |
|  | 66% |  | Cc1nc(CC(C)C)nc2sc3c(NCc4ccc(C(C)(C)O)cc4)nccc3c12 [22n] | fold decrease in hM4 activity with R1 larger than methyl (human M4 (hM4)): > 66 fold |
| 5.48 | 92% |  | Cc1nc(C)c2c(n1)sc1c(NCc3ccc(C(C)(C)O)cc3)ncc(Cl)c12 [26a] |  |
| 6.08 | 89% |  | Cc1nc(C)c2c(n1)sc1c(NCc3ccc(C(C)(C)O)cc3F)nccc12 [22h] |  |
|  | 38% |  | CCN(CC)c1nccc2c1sc1nc(C)nc(C)c12 [22a] |  |
|  | 109% | 0.57 µM | Cc1nc(C)c2c(n1)sc1c(C3CC3)nccc12 [23a] |  |
| 6.87 | 73% | 0.13 µM | Cc1nc(C)c2c(n1)sc1c(NC3CCCC3)nccc12 [22d] |  |
